# Several values for one entry are separate records, joined by “and”; a condition that tells them apart may be missing. Equal entries are not always repeated.
# B1: MOD-5 CeSERT (Caenorhabditis elegans) (protein)
# chain: MLRWHSVRRKQHQQLQAELSSGAASMLSAPESRRVSRSMSVKAPTASEYMPLSVADKPLTLTVSTSHSIDPNEPIAALGGLTPTKEGRVAALRRRSSMVRDKWATKMEFLLAVVGYAVDLGNIWRFPSVCYKHGGGAFLIPYFIMLMIGGLPMFYMELVLGQFHRSGCVSIWRKVCPLFRGIGYGICCICTFIAIFYNAIIAQAVYFAIVSLSKIWDSEVPWASCGNPWNTPRCSDDLNVTISRNGTPLTTPSEEYYLYKVLEVQKSTGFDDLGGVKTSMAVCLLAVFIMVYFALWKGPQSSGKIVWVTATAPYIILSILLIRGLLLPGAKNGLYYYVTPDFEKLKDPAVWSAAATQIFFSLGPGFGVLLALSSYNDFNNNCYRDAVTISIINCATSFFSGCVVFSTLGYMSLLTNKPINEVVGEHDASLIFIVYPQALATMDYSCFWSFIFFVMLITLGIDSTFAGIEAFITGFCDESRFLSKNRKWFVLVICIIYYFLSFPAISYGGQFVIPFLDEYGVSLSVLFIVTCEMIAVCWFYGVDQFSKDIRAMLGFYPGIYWRVCWTCSPVFISVIFIMTVYNSSFKPIQMASYTFPWWSVILGWFLRLLSVLAIPVFAIIYLLSGTGTLYERFRWAITPQQRRNSATSLAADPTQIIDSSLLDPIHTLTPV
# Columns and labels:
# [1] = system: C. elegans; test: egg-laying assay; format: in vivo
# Experimental: Egg-laying assays were performed as described in Trent et al. (Genetics 104:619–647, 1983).
# [2] = system: C. elegans; conditions: in vivo; cited from earlier work
# [3] = system: C. elegans; test: fluoxetine-induced nose contraction; format: in vivo; conditions: 20 minutes
# Text: This conclusion is consistent with the conclusion by Choy and Thomas (1999) that fluoxetine-mediated nose contraction is serotonin-independent, although their hypothesis was based on studies of cat-1(e1111) mutants, which are defective in signaling by several biogenic amines (Duerr et al., J Neurosci 19:72–84, 1999), and cat-4 mutants, which we found to not completely lack serotonin (FIG. 1B).
# [4] = system: C. elegans; test: fluoxetine-induced paralysis (liquid locomotion assay); format: in vivo
# Text: (Five trials with 20 animals of each genotype at each concentration and the animals were scored for paralysis after ten minutes.) There was no difference in the time-course of paralysis at any of the concentrations tested. These observations indicate that fluoxetine-induced paralysis in C. elegans is not caused by the lack of serotonin uptake from synapses. Fluoxetine-treated wild-type and mod-5(n3314) mutant animals assumed a rigid body posture. […] Serotonin has been proposed to decrease excitatory input to the locomotory muscles (Nurrish et al., Neuron 24:231–242, 1999).
# (§1) The plates were allowed to dry at room temperature with their lids removed for more than 2 hours.
# Animals to be tested for sensitivity or insensitivity to serotonin in this liquid locomotion assay were picked as L4 animals 16–20 hours prior to assay and the plates were coded so that the experimenter was blind to the genotype of the animals to be scored. On the day of the assay, serotonin (as a creatinine sulphate salt) was dissolved just before use, in M9, at the required concentrations, and 200 μl were aliquoted to the wells of a flat-bottomed 96-well polystyrene plate. […] Fluoxetine-induced paralysis was scored in a similar manner at 10 min.
# [5] = system: C. elegans; test: enhanced slowing response (locomotory rate of food-deprived animals on bacteria); format: in vivo
# Experimental: as §1
# For the experiment shown in FIG. 2, well-fed and food-deprived animals were transferred to assay plates with or without a bacterial lawn, and the locomotory rate of each animal was recorded after 5 min; food-deprived animals were transferred to plates without bacteria 30 min prior to the transfer to locomotory assay plates as is also described in Sawin et al. (Neuron 26:619–623, 2000). At least 10 trials were performed for each genotype for each condition. For FIG. 2, each trial involved testing at least five animals for each of the conditions; a given animal was tested in only one condition. p values were calculated by comparing the combined data for the mutants from all of the separate trials under one set of conditions to the combined data for the wild-type animals assayed in parallel under the same conditions. In FIG. 2B the data were obtained from three well-fed animals of each ablation state, seven mock-ablated and food-deprived animals, and 12 NSM-ablated and food-deprived animals. In FIG. 2D, serotonin dose-response curves for wild-type and mod-5 mutant animals were generated from averages of five trials with 20 animals of each genotype at each concentration in which animals were scored for movement after 5 min.
# Alternatively, nematodes to be tested in a non-liquid locomotion assay were picked as L4 animals 16–20 hours prior to the assay. Locomotion was assayed by placing the nematode on an assay plate (prepared by spreading a solution of E. coli strain HB101 in NGM agar in 5 cm plates, using a ring with an inner diameter of approximately 1 cm and an outer diameter of approximately 3.5 cm, and allowing the bacteria to grow 13–15 hours at 37 C.), observing each nematode under a dissecting microscope for 20 seconds, and counting the number of dorsal-ventral bends that occurred in the anterior portion of the body during the interval.
# To assay locomotion rates in food-deprived animals, 5–15 animals were removed from plates with ample food, washed twice in S-basal buffer, and transferred to 5 cm NGM agar plates without bacteria. Food-deprived animals were incubated on these plates for 30 minutes at room temperature, and then were transferred to assay plates. Locomotion rates were assayed as described above for satiated animals.
# [6] = molecular target: T1, MOD-5 CeSERT (Caenorhabditis elegans, UniProt Q963F3); test: cell-based
# T1 sequence (Q963F3 1-671): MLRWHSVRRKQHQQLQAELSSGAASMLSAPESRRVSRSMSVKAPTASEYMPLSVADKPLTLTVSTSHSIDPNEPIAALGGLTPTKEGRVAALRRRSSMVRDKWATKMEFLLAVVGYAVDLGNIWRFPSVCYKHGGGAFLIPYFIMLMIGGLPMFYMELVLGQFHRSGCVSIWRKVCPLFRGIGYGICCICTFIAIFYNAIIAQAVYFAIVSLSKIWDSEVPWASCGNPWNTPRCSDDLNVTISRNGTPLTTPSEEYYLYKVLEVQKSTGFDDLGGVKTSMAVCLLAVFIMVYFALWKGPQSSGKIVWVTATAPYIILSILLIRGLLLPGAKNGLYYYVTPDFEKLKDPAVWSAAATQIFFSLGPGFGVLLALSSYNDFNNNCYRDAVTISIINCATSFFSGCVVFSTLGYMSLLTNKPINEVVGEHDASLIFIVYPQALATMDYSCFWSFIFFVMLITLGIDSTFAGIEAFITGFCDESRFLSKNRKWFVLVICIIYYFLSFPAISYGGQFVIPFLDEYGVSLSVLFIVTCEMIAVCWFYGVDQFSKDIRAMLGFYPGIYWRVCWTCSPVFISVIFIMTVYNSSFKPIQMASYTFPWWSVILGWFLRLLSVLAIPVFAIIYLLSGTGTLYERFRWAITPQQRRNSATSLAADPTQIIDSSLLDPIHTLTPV
# [7] = molecular target: T1, MOD-5 CeSERT; test: MOD-5-mediated [^3H]serotonin uptake in HEK293 cell lines stably expressing MOD-5; conditions: for MOD-5-mediated uptake of radiolabeled neurotransmitter: 50 μM radiolabeled neurotransmitter vs 1 μM [^3H]serotonin; for transport of [^3H]serotonin by MOD-5, % of control: inhibitor 100 μM, [^3H]serotonin 50 nM
# [8] = molecular target: T2, dSERT (Drosophila melanogaster, UniProt P51905); conditions: inhibitor 200 μM, [^3H]serotonin 100 nM; cited from earlier work
# T2 sequence (P51905 1-622): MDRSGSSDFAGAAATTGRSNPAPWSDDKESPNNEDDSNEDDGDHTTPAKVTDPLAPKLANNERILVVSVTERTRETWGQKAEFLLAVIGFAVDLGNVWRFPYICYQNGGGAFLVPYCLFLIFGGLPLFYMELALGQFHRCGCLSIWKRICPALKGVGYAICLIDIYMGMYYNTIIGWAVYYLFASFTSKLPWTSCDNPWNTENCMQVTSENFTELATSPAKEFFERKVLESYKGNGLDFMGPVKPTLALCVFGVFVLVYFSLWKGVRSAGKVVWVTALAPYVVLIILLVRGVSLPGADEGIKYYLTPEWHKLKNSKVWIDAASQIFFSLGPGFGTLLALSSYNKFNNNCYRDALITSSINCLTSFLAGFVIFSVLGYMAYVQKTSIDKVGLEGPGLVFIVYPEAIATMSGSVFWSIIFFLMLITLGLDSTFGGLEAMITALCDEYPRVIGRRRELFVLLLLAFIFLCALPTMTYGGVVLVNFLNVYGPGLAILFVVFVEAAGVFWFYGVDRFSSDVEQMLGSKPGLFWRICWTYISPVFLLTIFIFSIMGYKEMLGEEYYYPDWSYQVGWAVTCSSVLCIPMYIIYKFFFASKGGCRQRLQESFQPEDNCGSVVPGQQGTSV
# [9] = system: C. elegans NSMs; test: serotonin uptake in vivo, anti-serotonin staining of NSMs; conditions: tph-1, 2 mM 5-HT for 2 hours, no fluoxetine
# Experimental: For the anti-serotonin antisera experiments shown in FIG. 1B, mod-5(n823); cat-4 and cat-4; lin-15(n765ts) double mutants were grown at 20° C., and animals of both genotypes were incubated separately on plates containing 2 mM serotonin and bacteria (see Sawin et al. (Neuron 26:619–623, 2000) for details concerning how plates were prepared) for two hours and then incubated on plates with bacteria but without serotonin for 30 min. Controls without exogenous serotonin were similarly treated in parallel. Prior to fixation, mod-5(n823); cat-4 and cat-4; lin-15 double mutants preincubated on serotonin-containing plates were combined, and mod-5(n823); cat-4 and cat-4; lin-15 double mutants preincubated on control plates were combined. Serotonin staining was performed as described by Desai et al. (Nature 336:638–646, 1988) using affinity-purified rabbit polyclonal anti-serotonin antisera. The cat-4; lin-15 mutants were not defective in the uptake of serotonin and served as internal controls for each staining reaction. These animals could be distinguished from the test animals by the Multivulva phenotype caused by lin-15.
# [10] = system: other SERTs; conditions: read-out: Km range of serotonin transport reported for other SERTs; cited from earlier work
# [11] = substrate: NCCc1c[nH]c2ccc(O)cc12; test: cells, lysate or membranes; conditions: other: HEK293 GFPMOD-5 cells, Eadie-Hoftsee transformation; pH 7.4; 37.0 °C
molecule,measurement,setting,value
CNCCC(Oc1ccc(C(F)(F)F)cc1)c1ccccc1 (stereo not drawn) [fluoxetine],stimulation of egg-laying,[1]; cat-4 mutants,completely resistant
same,stimulation of egg-laying,[1]; egl-1(n1084) mutants (lack HSNs),no effect on egg-laying
same,stimulation of egg-laying,"[1]; mod-5(n3314) mutants, 1.5 mM fluoxetine",stimulated to lay eggs to nearly the same extent as was the wild-type
same,stimulation of egg-laying,[1]; tph-1 mutants,partially resistant
same,"concentrations leading to paralysis, contraction of nose muscles, stimulation of egg-laying",[2],0.25–1 mg/ml and 0.7–2.9 mM
same,proportion of animals with contracted noses,"[3]; tph-1, 2.9 mM",100%
same,proportion of animals with contracted noses,"[3]; wild-type and mod-5(n3314), 1.5 mM",approximately 25%
same,proportion of animals with contracted noses,"[3]; wild-type and mod-5(n3314), 2.9 mM",100%
same,paralysis induced by fluoxetine treatment,"[4]; mod-5(n3314) mutants vs wild-type, scored after ten minutes",retained wild-type sensitivity to fluoxetine
same,paralysis induced by fluoxetine treatment,[4]; tph-1 mutants vs wild-type,paralyzed tph-1 mutants to a similar extent as wild-type animals
same,potentiation of the enhanced slowing response,"[5]; bas-1, cat-4 mutants preincubated with 2 mM serotonin",exhibited a potentiated enhanced slowing response
same,potentiation of the enhanced slowing response,[5]; mod-1(ok103) mutants,potentiated by fluoxetine
same,potentiation of the enhanced slowing response,"[5]; mod-5(n3314), mod-1(ok103) double mutants",completely resistant
same,potentiation of the enhanced slowing response,"[5]; wild-type, food-deprived in 0.22 mM fluoxetine",slow their locomotory rate more
COC(=O)[C@H]1[C@@H](OC(=O)c2ccccc2)C[C@@H]2CC[C@H]1N2C [cocaine],Ki,[6],4080 ± 349 nM
"NC[C@H](O)c1ccc(O)c(O)c1 [NE, norepinephrine]",MOD-5-mediated uptake of radiolabeled neurotransmitter,[7],inefficient at translocating
NCCc1ccc(O)cc1 [tyramine],"transport of [^3H]serotonin by MOD-5, % of control",[7],54%±10%
same,"dSERT-mediated transport of [^3H]serotonin, % of control",[8],95%±15%
NCCc1c[nH]cn1 [histamine],MOD-5-mediated uptake of radiolabeled neurotransmitter,[7],inefficient at translocating
"NCCCC(=O)O [GABA, gamma-aminobutyric acid]",MOD-5-mediated uptake of radiolabeled neurotransmitter,[7],inefficient at translocating
N[C@@H](CCC(=O)O)C(=O)O [glutamate],MOD-5-mediated uptake of radiolabeled neurotransmitter,[7],inefficient at translocating
CN(C)CCCN1c2ccccc2CCc2ccccc21 [imipramine],Ki,[6],89 ± 58 nM
NCCc1c[nH]c2ccc(O)cc12 [serotonin],% Serotonin-positive NSMs,[9]; mod-5(n3314),0%
same,% Serotonin-positive NSMs,[9],98%
same,Vmax of MOD-5-mediated [^3H]serotonin transport,[7]; HEK293 GFPMOD-5 cells,8.31×10^−9 nmoles per cell per min
same,Km,[10],0.28 to 0.63 µM
NCCc1ccc(O)c(O)c1 [dopamine],MOD-5-mediated uptake of radiolabeled neurotransmitter,[7],inefficient at translocating
NCC(O)c1ccc(O)cc1 (stereo not drawn) [octopamine],"transport of [^3H]serotonin by MOD-5, % of control",[7],86%±12%
same,"dSERT-mediated transport of [^3H]serotonin, % of control",[8],82%±15%
B1,Km,[11],0.15 ± 0.008 µM

# From patent publication US7217411B2, “CeSERT genes, proteins, and modulatory compounds” (Massachusetts Institute of Technology, priority 2000, dated 2007)
